Test results: ChEMBL document CHEMBL1201862, “PubChem BioAssay data set” (2004)
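Five compound concentrations were applied to cells in 96-well plates for 48 hours; endpoints were derived by simple linear interpolation of the resulting dose-response curve. GI50 marks 50% less growth.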 Activity calls are given as the source filed them. Cut-off read from the data, not from the text of the source: active = GI50 up to about 1.1 µM and inactive = higher.

Legend:
Assay in all cases: NCI anticancer screen, dose series, 48 h
A498 = test system: A498
CAKI-1 = test system: CAKI-1
CCRF-CEM = test system: CCRF-CEM
HCC 2998 = test system: HCC 2998
HL-60 = test system: HL-60
HOP-18 = test system: HOP-18
HOP-92 = test system: HOP-92
MCF7 = test system: MCF7
NCI-H522 = test system: NCI-H522
NCI/ADR-RES = test system: NCI/ADR-RES
RPMI-8226 = test system: RPMI-8226
UACC-257 = test system: UACC-257

Measured: GI50

Cc1c2cc[n+](C)cc2c(COC2OC(CO)C(O)C2O)c2c3ccccc3n(C)c12 (stereo unspecified)
inactive: A498 > 100 µM | CAKI-1 > 100 µM | CCRF-CEM > 87.9 µM | HCC 2998 > 100 µM | HL-60 > 100 µM | HOP-18 27.5 µM | HOP-92 77.6 µM | MCF7 > 100 µM | NCI-H522 63.1 µM | NCI/ADR-RES > 97.7 µM | RPMI-8226 99.5 µM | UACC-257 > 100 µM

CNC(=O)OCc1nc(SC)n(C)c1CO
inactive: A498 > 100 µM | CAKI-1 > 100 µM | CCRF-CEM > 100 µM | HCC 2998 > 100 µM | HL-60 > 100 µM | HOP-18 > 79.3 µM | HOP-92 > 100 µM | MCF7 > 100 µM | NCI-H522 > 100 µM | NCI/ADR-RES > 100 µM | RPMI-8226 > 100 µM | UACC-257 > 100 µM

Cc1c(-c2cc3n(n2)C(c2cccs2)C(C#N)=C(c2ccccc2)N3)c(=O)n(-c2ccccc2)n1C (stereo unspecified)
inactive: A498 82.8 µM | CAKI-1 11.1 µM | CCRF-CEM > 95.1 µM | HCC 2998 > 100 µM | HL-60 48.9 µM | HOP-18 > 100 µM | HOP-92 36 µM | MCF7 > 86.5 µM | NCI-H522 63.2 µM | NCI/ADR-RES > 86.3 µM | UACC-257 49.2 µM

CN(C)CCNC(=O)c1cccc2c1Nc1ccccc1S2
inactive: A498 10.6 µM | CCRF-CEM 12.4 µM | HCC 2998 13.9 µM | HL-60 5 µM | HOP-18 11.9 µM | HOP-92 2.08 µM | MCF7 13 µM | NCI/ADR-RES 16.2 µM | RPMI-8226 9.57 µM | UACC-257 13.7 µM

CC1=NN(C(=O)c2ccccc2)C(=O)C1/N=N/c1ccccc1C(=O)O (stereo unspecified)
inactive: A498 5.47 µM | CAKI-1 6.53 µM | CCRF-CEM 3.81 µM | HCC 2998 19.8 µM | HL-60 3.53 µM | HOP-18 99.1 µM | HOP-92 4.11 µM | MCF7 3.86 µM | NCI-H522 8.05 µM | NCI/ADR-RES 4.76 µM | RPMI-8226 4.36 µM
